ChEMBL document CHEMBL4811256, “Synthesis and evaluation of multi-target-directed ligands with BACE-1 inhibitory and Nrf2 agonist activities as potential agents against Alzheimer's disease” (Eur J Med Chem, 2021)
Calls of active or inactive are those of the source. The rule behind the calls is not given here.

Assays:
PC-12 [1] = test: Protection against 6-OHDA-induced mitochondrial dysfunction in rat PC-12 cells assessed as change in mitochondrial membrane potential at 10 uM pretreated with compound for 12 hrs followed by 6-OHDA challenge by JC-1 staining based flow cytometry (reference value: 56 %); format: functional
in vitro = details: PAMPA
PC-12 [2] = test: Protection against 6-OHDA-induced apoptosis in rat PC-12 cells assessed as late apoptotic cells at 2.5 uM pretreated for 12 hrs followed by 6-OHDA challenge by annexin V FITC/propidium iodide staining based flow cytometry (reference value: 17.3 %); format: functional
PC-12 [3] = test: Cytoprotective activity against H2O2-induced oxidative stress in rat PC-12 cells assessed as decrease in cell death at 10 uM pretreated with brusatol for 1 hr followed by compound treatment for 12 hrs and subsequent H2O2 challenge by MTT assay; format: functional, cell-based
PC-12 [4] = test: Protection against 6-OHDA-induced apoptosis in rat PC-12 cells assessed as early apoptotic cells at 2.5 uM pretreated for 12 hrs followed by 6-OHDA challenge by annexin V FITC/propidium iodide staining based flow cytometry (reference value: 2.4 %); format: functional
PC-12 [5] = test: Activation of Keap1-Nrf2-ARE pathway in rat PC-12 assessed as upregulation of HO-1 protein expression at 10 uM measured after 6 to 24 hrs by Western blot analysis; details: filed as activator, time 6-24 hrs
PC-12 [6] = test: Protection against 6-OHDA-induced apoptosis in rat PC-12 cells assessed as necrotic cells at 2.5 uM pretreated for 12 hrs followed by 6-OHDA challenge by annexin V FITC/propidium iodide staining based flow cytometry (reference value: 3.7 %); format: functional
PC-12 [7] = test: Protection against H2O2-induced apoptosis in rat PC-12 cells assessed as cell rescue pretreated for 12 hrs followed by H2O2 challenge by Hoechst 33342 staining based confocal microscopic analysis; format: functional; details: dose 2.5-10 µM
PC-12 [8] = test: Cytoprotective activity against H2O2- induced cell death in rat PC-12 cells assessed as decrease in LDH release pretreated for 12 hrs followed by H2O2 challenge by LDH assay; format: functional, cell-based; details: dose 2.5-10 µM
PC-12 [9] = test: Protection against H2O2-induced apoptosis in rat PC-12 cells assessed as necrotic cells at 2.5 uM pretreated for 12 hrs followed by H2O2 challenge by annexin V FITC/propidium iodide staining based flow cytometry (reference value: 3.7 %); format: functional
PC-12 [10] = test: Cytoprotective activity against 6-OHDA induced cell death in rat PC-12 cells assessed as increase in viable cells at 10 uM pretreated for 12 hrs followed by 6-OHDA challenge by MTT assay relative to control; format: functional
PC-12 [11] = test: Protection against 6-OHDA-induced mitochondrial dysfunction in rat PC-12 cells assessed as change in mitochondrial membrane potential at 2.5 uM pretreated with compound for 12 hrs followed by 6-OHDA challenge by JC-1 staining based flow cytometry (reference value: 56 %); format: functional
PC-12 [12] = test: Activation of Keap1-Nrf2-ARE pathway in rat PC-12 assessed as upregulation of GCLM protein expression measured after 12 hrs by Western blot analysis; details: filed as activator, dose 2.5-10 µM
[13] = target: T1, Nuclear factor erythroid 2-related factor 2 (Mus musculus) (UniProt Q60795); test: Activation of Nrf2 in mouse BV-2 cells assessed as upregulation of GCLM protein expression after 24 hrs by Western blot analysis; format: cell-based; details: filed as activator, dose 2.5-10 µM
T1 sequence (whole entry): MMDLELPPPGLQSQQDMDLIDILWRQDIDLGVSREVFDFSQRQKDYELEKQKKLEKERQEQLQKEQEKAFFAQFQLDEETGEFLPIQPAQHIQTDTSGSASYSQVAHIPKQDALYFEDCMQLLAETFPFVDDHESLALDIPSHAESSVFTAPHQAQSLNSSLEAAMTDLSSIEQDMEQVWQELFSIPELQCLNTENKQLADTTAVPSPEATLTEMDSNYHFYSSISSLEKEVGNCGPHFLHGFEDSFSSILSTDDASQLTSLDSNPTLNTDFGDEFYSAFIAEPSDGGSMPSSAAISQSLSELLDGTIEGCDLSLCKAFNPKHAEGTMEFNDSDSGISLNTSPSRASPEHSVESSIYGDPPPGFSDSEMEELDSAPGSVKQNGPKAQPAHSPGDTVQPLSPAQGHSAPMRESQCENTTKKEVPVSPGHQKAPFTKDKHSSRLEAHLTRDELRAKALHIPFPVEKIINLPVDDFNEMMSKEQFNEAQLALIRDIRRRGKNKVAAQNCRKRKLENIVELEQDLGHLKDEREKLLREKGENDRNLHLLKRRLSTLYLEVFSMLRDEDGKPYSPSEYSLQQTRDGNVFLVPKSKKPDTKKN

PC-12 [14] = test: Cytoprotective activity against H2O2-induced oxidative stress in rat PC-12 cells assessed as decrease in cell death at 10 uM pretreated for 12 hrs followed by H2O2 challenge by MTT assay; format: functional, cell-based
PC-12 [15] = test: Protection against 6-OHDA-induced apoptosis in rat PC-12 cells assessed as cell rescue pretreated for 12 hrs followed by 6-OHDA challenge by Hoechst 33342 staining based confocal microscopic analysis; format: functional; details: dose 2.5-10 µM
BV-2 [16] = test: Antiinflammatory activity in mouse BV-2 cells transfected with Nrf2 siRNA assessed as inhibition of LPS-induced IL-6 production at 10 uM pretreated with compound for 2 hrs followed by LPS stimulation and further incubated for 18 hrs; format: functional, cell-based; details: time 20.0 hrs
PC-12 [17] = test: Activation of Keap1-Nrf2-ARE pathway in rat PC-12 assessed as upregulation of total Nrf2 protein expression at 10 uM measured after 3 hrs by Western blot analysis; details: filed as activator
BV-2 [18] = test: Antiinflammatory activity in mouse BV-2 cells transfected with Nrf2 siRNA assessed as inhibition of LPS-induced NO production at 10 uM pretreated with compound for 2 hrs followed by LPS stimulation and further incubated for 18 hrs; format: functional, cell-based; details: time 20.0 hrs
PC-12 [19] = test: Protection against H2O2-induced apoptosis in rat PC-12 cells assessed as viable cells at 10 uM pretreated for 12 hrs followed by H2O2 challenge by annexin V FITC/propidium iodide staining based flow cytometry (reference value: 73.3 %); format: functional; details: read-out: Activity
PC-12 [20] = test: Prevention of H2O2-induced calcium overload in rat PC-12 cells assessed as reduction in intracellular free calcium pretreated with compound for 12 hrs followed by H2O2 challenge by Fluo-3AM based fluorescence assay; format: functional, cell-based; details: dose 2.5-10 µM
PC-12 [21] = test: Protection against H2O2-induced apoptosis in rat PC-12 cells assessed as viable cells at 5 uM pretreated for 12 hrs followed by H2O2 challenge by annexin V FITC/propidium iodide staining based flow cytometry (reference value: 73.3 %); format: functional; details: read-out: Activity
PC-12 [22] = test: Protection against H2O2-induced apoptosis in rat PC-12 cells assessed as necrotic cells at 5 uM pretreated for 12 hrs followed by H2O2 challenge by annexin V FITC/propidium iodide staining based flow cytometry (reference value: 3.7 %); format: functional
PC-12 [23] = test: Activation of Keap1-Nrf2-ARE pathway in rat PC-12 assessed as upregulation of GCLC protein expression measured after 12 hrs by Western blot analysis; details: filed as activator, dose 2.5-10 µM

CN1C(N)=N[C@](C)(c2cc(-n3[se]c4cc(F)ccc4c3=O)ccc2F)CS1(=O)=O
Activity (PC-12 [1]): 78.6% | Papp at 16 h (in vitro): 16 ×10⁻⁶ cm/s | Activity (PC-12 [2]): 14.9% | Activity (PC-12 [3]): inactive | Activity (PC-12 [4]): 2% | Activity (PC-12 [5]): Active | Activity (PC-12 [6]): 3.3% | Activity (PC-12 [7]): Dose-Dependent Effect | Activity (PC-12 [8]): Dose-Dependent Effect | Activity (PC-12 [9]): 2.1% | Activity (PC-12 [10]): 77% | Activity (PC-12 [11]): 61.2% | Activity (PC-12 [12]): Active | Activity [13]: Dose-Dependent Effect | Activity (PC-12 [14]): Active | Activity (PC-12 [15]): Dose-Dependent Effect | Activity (BV-2 [16]): inactive | Activity (PC-12 [17]): Active | Activity (BV-2 [18]): inactive | viability at 10 µM (PC-12 [19]): 92.6% | Activity (PC-12 [20]): Dose-Dependent Effect | viability at 5 µM (PC-12 [21]): 89% | Activity (PC-12 [22]): 1.3% | Activity (PC-12 [23]): Active
